The values below come from US10732174B2, “Three dimensional tissues for high-throughput assays” (INVIVOSCIENCES, INC., priority 2008, dated 2020).

The test system of series [1] is REF-52 cells. The conditions noted are these: for cytotoxicity signs in cell monolayers (confluency, nuclei, shrinkage): 24 hours; for F-actin morphology in cells, microscopy: REF monolayers, 3 hr and 24 hr. The protocol:
REF-52 cells were plated on 35 mm culture dishes (50,000 cells) in 10% FBS medium (2 ml). Cells are incubated over night and then treated with compounds. […] Cells were incubated with drugs for 24 hours prior to fixing. To fix, treated cells were rinsed once with 2 ml of phosphate buffered saline (PBS, D5652) and then incubated in 1 ml of 4% paraformaldehyde (Sigma) solution (in PBS) for 30 min. Fixed cells are rinsed twice and then stored in 2 ml of PBS.
Fixed REF-52 cells were permeabilized by incubating in 1 ml of 0.1% Triton (BP151, Fisher Scientific) solution (in PBS) for 15 min. Permeabilized cells were rinsed twice with 1 ml TBST buffer and then blocked with 1 ml of 5% goat serum in TBST for 1 hour. One milliliter of 1:200 diluted Alexa 568 conjugated phalloidin (A12380, Invitrogen) in TBST with 2% goat serum was then added to the cells. This staining solution also contained 400 nM of DAPI (D9564). Cells were stained for 30 min and then rinsed twice with TBST. Labeled cells were mounted with Vectashield (Vector Laboratories, Burlingame, Calif.), covered with a cover slide and then sealed with nail polish. The plate was then inverted on to a Leica SP5 confocal microscope (Leica Microsystems, Bannockburn, Ill.) and imaged with 63× water immersion objective. Alexa 568 was excited using the 543 laser line and DAPI was excited using a MaiTai multi-photon laser.

Series [2] has as its system hydrogel tissue constructs (HTCs) of REF-52 cells. Briefly: HTC force measurement (Palpator). In kind it is cell-based, rat. The conditions noted are these: for effect on tissue (HTC contractile) force, in words: 3 and 24 hr; for EC50: Rattus norvegicus, read-out: EC50 of tissue force reduction. The protocol: Rat embryonic fibroblasts (REF-52) were cultured in Dulbecco's Modified Eagle's Medium (DMEM, MT10013CM, Fisher Scientific, Pittsburgh, Pa.) supplemented with 10% fetal bovine serum (FBS, S11050, Atlanta Biologicals, Lawrenceville, Ga.). Cells were sub-cultured every two to three days. To make hydrogel tissue constructs (HTCs), REF-52 cells (between passages 40 to 70) were dissociated from culture plates by treating with 0.05% trypsin (MT-25-025-CI, Fisher Scientific) for 10 to 15 min. The cells were then centrifuged at 1000 g for 10 min. The trypsin solution was decanted and the cell pellet was re-suspended in 10% FBS DMEM medium. This cell suspension was diluted in HTC tissue solution to achieve a final concentration of 8×10^5 cells per ml. The HTC tissue solution consisted of 10% FBS DMEM, 1 mg/ml of type 1 collagen (354249, BD Biosciences, San Jose, Calif.) in 0.02 N acetic acid, sufficient sodium hydroxide to neutralize the acid in the collagen, and sufficient 5×DMEM to compensate for the volume of collagen and NaOH. To prevent premature collagen polymerization, the HTC tissue solution was kept on ice until its distribution into our custom-made tissue molds (FIG. 3). Each mold contains 8 separate HTC-forming wells with two built-in horizontal support bars. Three hundred microliters of the HTC tissue solution was aliquoted into each well in these molds and then incubated for 30 min at 37° C. and 5% CO2. After the incubation period, […] of 10% FBS DMEM medium was added to each well and the molds were further incubated for 48 hr. In this time, the solution contracted to form HTCs that span the support bars in the wells.
The Palpator™ (as described in U.S. Pat. No. 7,449,306, which is incorporated herein by reference in its entirety) was used to quantify the contractility of the HTCs. The molds were placed on the stage of the Palpator™ which automatically inserted a probe into each well and stretched the individual HTC. The probe was connected to a force transducer which measured the resistance force induced in the HTC in response to stretch and exported the values to a computer for recording. A custom Matlab algorithm was used to process and analyze the force data to report a numerical parameter that is indicative of the active cell force in the HTC. To obtain stable measurements of the HTC contractile force, it was necessary to precondition the HTCs by stretching three times prior to actual force measurement. Preconditioning was not necessary if subsequent force measurements were within 30 min of the previous stretch. HTCs at 24 hr post treatment were always pre-conditioned before force measurement.

Series [3] relates to HTCs of REF-52 cells. As to conditions: 24 hours. As to the method:
3-(4,5-dimethylthiazol-2-yl)-2,5-diphenyltetrazolium (MTT, M-6494, Invitrogen) was used to quantify cell viability in the HTCs. At predetermined times following drug exposure, MTT was added to each well to achieve 0.5 mg/ml. MTT was left in the wells for 2 hr and then removed. The formazan dye that forms in the cells were then suspended in 500 μl of isopropanol (S77795, Fisher Scientific) containing 0.1 N hydrochloric acid. Two hundred microliters of the formazan solution is then put into a 96-well plate well and read on the Synergy HT plate reader. Absorbance at 570 and 650 nm were recorded and the difference (A570-A650) was used as the absorbance intensity of the formazan.
All chemicals are from Sigma (Sigma-Alrich, St. Louis, Mo.) unless otherwise noted. […] DNP was diluted to 1 M in DMSO and then to 100, 10, and 1 mM in -F/G/P DMEM. Following HTC preconditioning and background force (i.e. pre-drug) measurement, 50 μl of the appropriate drug dilutions were added to each well to achieve the desired treatment concentration. Fifty microliters of -F/G/P DMEM was added to the control wells. Upon drug addition, medium in the wells was mixed by pipetting four times.
Finally to measure the compounds' effects on cellular viability, the assay using 3-(4,5-Dimethylthiazol-2-yl)-2,5-diphenyltetrazolium bromide (MTT) was performed. In cells, the yellow MTT is converted to a purple colored formazan by succinate dehydrogenase and this change can be quantified by light absorbance between 500-600 nm was quantitatively recorded using the plate reader.

The subject of series [4] is mitochondrial membrane potential in HTCs of REF-52 cells. Briefly: HTC TMRE labeling, mitochondrial potential. In kind it is cell-based, rat. The conditions noted are these: for effect on mitochondrial potential, in words: HTC, TMRE; for EC50: Rattus norvegicus, read-out: EC50 of TMRE signal reduction (MMP uncoupling). As to the method: The ethyl ester of tetramethylrhodamine (TMRE, T-669, Invitrogen, Carlsbad, Calif.) was used to quantify the mitochondrial potential of the HTCs. HTCs were incubated in 100 nM TMRE for 30 min and then in phenol red free 10% FBS DMEM for 60 min. Phenol red free medium was used to prevent interference with TMRE fluorescence reading. Following labeling, HTCs were preconditioned with three stretches and then prior to background force measurement. HTC TMRE signal was then read on a Synergy HT plate reader (Biotek Instruments, Winooski, Vt.). A custom made adapter plate was used to position the tissue molds on the plate-holding rack of the plate reader. Fluorescence signal was read from the bottom using the 543/590 excitation/emission filter set and a gain setting of 50. TMRE fluorescence intensity was also read following each force measurement at predetermined time points after drug treatments.
TMRE is cationic and accumulates in the mitochondria as a function of MMP. […] More detailed investigation of DNP's effect on TMRE accumulation using confocal microscopy improved signal detection in both monolayers and HTCs (FIG. 6C and FIG. 6D).

“Also recorded” adds a separate entry of the source. Like-named read-outs stand apart in the source and are kept apart here.

On to `O=[N+]([O-])c1ccc(O)c([N+](=O)[O-])c1` [DNP, 2,4-dinitrophenol], for which the “cytotoxicity signs in cell monolayers (confluency, nuclei, shrinkage)” value in series [1] is “less than that of control”. For the same compound, the “F-actin morphology in cells, microscopy” value in series [1] is given as “limited to no effects; also recorded: did not dramatically affect F-actin morphology”. Also, the “reduction in EC50 of effect on tissue force” value in series [2] (24 hr vs 3 hr) is 65 fold. The “concentration needed to reduce tissue force relative to H-1152 or CD” value in series [2] (HTC) is ~10,000 fold. Further, the “effect on tissue (HTC contractile) force, in words” value in series [2] (HTC) is given as “dose-dependently reduced HTC contractile force; also recorded: also reduced tissue force; also recorded: very effective at reducing HTC force”. The EC50 in series [2] (REF52, 3 h) was 1300 µM; in series [2] (REF52, 24 h) it was 20 µM; in series [4] (REF52, 3 h) it was around 340 µM; in series [4] (REF52, 24 h), around 95 µM. The “effect on HTC viability / MTT signal, in words” value in series [3] was “did not affect MTT signal”. For the same compound, the “reduction in TMRE EC50 by 24 hours treatment” value in series [4] (24 hr vs 3 hr) stood at 3.6 fold. Besides, the “effect on mitochondrial potential, in words” value in series [4] is “dose-dependently uncoupled HTC mitochondrial potential; also recorded: extensive uncoupling effect”.
As to `C=C(C)[C@H]1Cc2c(ccc3c2O[C@@H]2COc4cc(OC)c(OC)cc4[C@@H]2C3=O)O1` [ROT, rotenone], in series [1], the “cytotoxicity signs in cell monolayers (confluency, nuclei, shrinkage)” value is recorded as “cytotoxicity was evident; also recorded: less than that of control; also recorded: Noticeable nuclear fragmentation” and the “F-actin morphology in cells, microscopy” value was “limited to no effects; also recorded: did not dramatically affect F-actin morphology”. For the same compound, the “effect on tissue (HTC contractile) force, in words” value in series [2] (HTC) is “dose-dependently reduced HTC contractile force; also recorded: also reduced tissue force; also recorded: moderate negative impact”. Moreover, the “reduction of MTT signal” value in series [3] (10 μM) is 40%. Further, in series [4], the “effect on mitochondrial potential, in words” value is listed as “moderate negative impact”.

As usually defined, the EC50 is the concentration that produces a half-maximal response.
